In patent publication US8148391B2 (Cephalon, Inc., priority 2006, dated 2012) one finds IC50 data, which are given here for 23 molecules.

The structures appear in SMILES notation.

For test [1], the target named is T1, baculovirus-expressed ALK (Homo sapiens, UniProt Q9UM73).
T1 construct: host or cells: baculovirus expression system
The experiment in a line: ALK Kinase Assay (ELISA-type, time-resolved fluorescence). In kind it is biochemical. The settings on record: ALK kinase inhibition, 1 μM ATP (Km level); read-out: ALK Activity. Summed up: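 Plates coated with phospholipase C-γ substrate (10 μg/mL in TBS); reaction started with 30 ng/ml ALK and run 15 min at 37° C. Phosphorylated substrate detected with Eu-N1-labeled PT66 antibody. IC50 from sigmoidal variable-slope fit of percent inhibition vs log concentration.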

Test [2] concerns the target T2, c-Met (cytoplasmic domain) (Homo sapiens, UniProt P08581).
T2 construct: 10 ng/mL c-Met (cytoplasmic domain, Invitrogen Corporation #PV3143); purchased Invitrogen Corporation PV3143
The experiment in a line: c-Met Kinase Assay (same methods as for ALK, with modifications). The note with it: c-Met kinase inhibition, 1 μM ATP (Km level); read-out: cMet Activity. In kind it is biochemical. Summed up:
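Plates were coated with phospholipase C-γ substrate (10 μg/mL) in TBS, and the reaction was started with 10 ng/mL c-Met cytoplasmic domain and run 15 min at 37 °C. Phosphoproduct was detected with Eu-N1-labelled PT66 antibody. IC50 came from a variable-slope sigmoidal fit of percent inhibition vs log concentration.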

T1 sequence (Q9UM73 19-1620): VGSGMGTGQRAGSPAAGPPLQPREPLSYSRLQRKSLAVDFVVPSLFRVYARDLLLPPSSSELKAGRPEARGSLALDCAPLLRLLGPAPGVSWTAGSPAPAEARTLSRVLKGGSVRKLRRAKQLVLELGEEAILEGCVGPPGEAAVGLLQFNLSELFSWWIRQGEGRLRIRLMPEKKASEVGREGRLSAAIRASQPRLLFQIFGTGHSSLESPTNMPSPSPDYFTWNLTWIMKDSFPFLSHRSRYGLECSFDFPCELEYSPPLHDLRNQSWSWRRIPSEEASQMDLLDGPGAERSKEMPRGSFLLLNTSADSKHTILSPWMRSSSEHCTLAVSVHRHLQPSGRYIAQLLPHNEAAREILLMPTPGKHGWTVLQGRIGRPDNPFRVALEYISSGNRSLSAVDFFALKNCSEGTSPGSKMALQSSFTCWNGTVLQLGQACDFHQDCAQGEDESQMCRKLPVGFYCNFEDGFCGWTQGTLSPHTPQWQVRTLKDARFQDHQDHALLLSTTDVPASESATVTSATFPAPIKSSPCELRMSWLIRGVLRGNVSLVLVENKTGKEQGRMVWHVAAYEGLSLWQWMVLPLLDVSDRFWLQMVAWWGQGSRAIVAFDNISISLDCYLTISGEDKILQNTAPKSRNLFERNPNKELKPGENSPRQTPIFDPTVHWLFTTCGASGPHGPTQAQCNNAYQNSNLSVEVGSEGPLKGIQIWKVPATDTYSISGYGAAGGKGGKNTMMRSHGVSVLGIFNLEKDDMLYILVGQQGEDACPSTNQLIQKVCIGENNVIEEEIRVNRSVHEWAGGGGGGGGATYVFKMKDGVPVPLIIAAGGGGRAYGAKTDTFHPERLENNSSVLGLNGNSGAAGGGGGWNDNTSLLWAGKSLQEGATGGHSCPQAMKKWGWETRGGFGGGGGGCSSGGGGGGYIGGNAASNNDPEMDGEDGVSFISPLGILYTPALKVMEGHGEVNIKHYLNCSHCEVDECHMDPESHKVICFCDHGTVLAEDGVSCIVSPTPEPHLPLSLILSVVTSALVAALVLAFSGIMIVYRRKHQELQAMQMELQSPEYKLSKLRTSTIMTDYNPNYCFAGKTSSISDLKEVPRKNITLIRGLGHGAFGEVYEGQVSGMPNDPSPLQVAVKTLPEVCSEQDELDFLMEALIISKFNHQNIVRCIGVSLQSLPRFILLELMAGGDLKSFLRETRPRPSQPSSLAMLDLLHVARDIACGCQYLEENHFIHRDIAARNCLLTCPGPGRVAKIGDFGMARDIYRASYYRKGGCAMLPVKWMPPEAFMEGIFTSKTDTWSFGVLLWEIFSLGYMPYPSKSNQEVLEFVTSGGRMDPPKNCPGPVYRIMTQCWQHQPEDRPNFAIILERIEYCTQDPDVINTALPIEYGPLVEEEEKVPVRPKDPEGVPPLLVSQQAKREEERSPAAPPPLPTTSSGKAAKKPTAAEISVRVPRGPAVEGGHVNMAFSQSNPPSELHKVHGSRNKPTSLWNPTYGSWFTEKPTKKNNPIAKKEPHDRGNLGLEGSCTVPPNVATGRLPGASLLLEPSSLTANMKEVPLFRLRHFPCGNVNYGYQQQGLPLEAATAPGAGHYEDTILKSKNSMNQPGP
T2 sequence (P08581 956-1390 limits assumed): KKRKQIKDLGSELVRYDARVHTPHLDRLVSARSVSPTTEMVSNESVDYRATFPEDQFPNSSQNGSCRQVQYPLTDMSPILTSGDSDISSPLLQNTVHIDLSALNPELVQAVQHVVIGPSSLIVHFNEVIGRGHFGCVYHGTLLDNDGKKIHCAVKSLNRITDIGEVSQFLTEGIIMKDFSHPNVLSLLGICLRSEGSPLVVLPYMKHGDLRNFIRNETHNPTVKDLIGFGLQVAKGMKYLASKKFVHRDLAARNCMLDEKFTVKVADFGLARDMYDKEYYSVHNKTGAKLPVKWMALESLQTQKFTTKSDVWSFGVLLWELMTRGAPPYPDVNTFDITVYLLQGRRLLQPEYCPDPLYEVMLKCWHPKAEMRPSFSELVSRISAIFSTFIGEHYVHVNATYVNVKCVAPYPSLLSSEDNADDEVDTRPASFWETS

Take `COCCN1CCc2ccc(Nc3ncc(Cl)c(NC(C)(C)CNS(C)(=O)=O)n3)cc2CC1` [Example 306, N-(2-{5-Chloro-2-[3-(2-methoxy-ethyl)-2,3,4,5-tetrahydro-1H-benzo[d]azepin-7-ylamino]-pyrimidin-4-ylamino}-2-methyl-propyl)-methanesulfonamide]: the IC50 is 100 to 1000 nM in test [1] and greater than 10000 nM in test [2].
The corresponding values for `CCN1CCc2ccc(Nc3ncc(Cl)c(NC(C)(C)CNS(C)(=O)=O)n3)cc2CC1` [Example 307, N-{2-[5-Chloro-2-(3-ethyl-2,3,4,5-tetrahydro-1H-benzo[d]azepin-7-ylamino)-pyrimidin-4-ylamino]-2-methyl-propyl}-methanesulfonamide] are 1000 to 10000 nM and greater than 10000 nM.
The corresponding values for `CNC(=O)c1cc(C)ccc1Nc1nc(Nc2ccc3c(c2)CCN(CCOC)CC3)ncc1Cl` [Example 308, 2-{5-Chloro-2-[3-(2-methoxy-ethyl)-2,3,4,5-tetrahydro-1H-benzo[d]azepin-7-ylamino]-pyrimidin-4-ylamino}-5,N-dimethyl-benzamide] are less than 100 nM and less than 100 nM.
The corresponding values for `COCCN1CCc2ccc(Nc3ncc(Cl)c(Nc4ccc(N5CCOCC5)cc4OC)n3)cc2CC1` [Example 309, 5-Chloro-N*2*-[3-(2-methoxy-ethyl)-2,3,4,5-tetrahydro-1H-benzo[d]azepin-7-yl]-N*4*-(2-methoxy-4-morpholin-4-yl-phenyl)-pyrimidine-2,4-diamine] are less than 100 nM and 100 to 1000 nM.
Turning to `COCCN1CCc2ccc(Nc3ncc(Cl)c(NC4C5C=CC(C5)C4C(N)=O)n3)cc2CC1` (stereo not drawn) [Example 310, (2-exo,3-exo)-3-{5-Chloro-2-[3-(2-methoxy-ethyl)-2,3,4,5-tetrahydro-1H-benzo[d]azepin-7-ylamino]-pyrimidin-4-ylamino}-bicyclo[2.2.1]hept-5-ene-2-carboxylic acid amide], the IC50 is less than 100 nM in test [1] and 100 to 1000 nM in test [2].
The like results for `CNC(=O)c1cc(Cl)cc(Cl)c1Nc1nc(Nc2ccc3c(c2)CCN(CCOC)CC3)ncc1Cl` [Example 314, 3,5-Dichloro-2-{5-chloro-2-[3-(2-methoxy-ethyl)-2,3,4,5-tetrahydro-1H-benzo[d]azepin-7-ylamino]-pyrimidin-4-ylamino}-N-methyl-benzamide] were, in that order, 100 to 1000 nM and less than 100 nM.
As for `CNC(=O)c1cccc(OC)c1Nc1nc(Nc2ccc3c(c2)CCN(CCOC)CC3)ncc1Cl` [Example 315, 2-{5-Chloro-2-[3-(2-methoxy-ethyl)-2,3,4,5-tetrahydro-1H-benzo[d]azepin-7-ylamino]-pyrimidin-4-ylamino}-3-methoxy-N-methyl-benzamide], the IC50 in test [1] and in test [2] was 100 to 1000 nM each time.
With `COCCN1CCc2ccc(Nc3ncc(Cl)c(Nc4ccccc4-n4cccn4)n3)cc2CC1` [Example 316, 5-Chloro-N*2*-[3-(2-methoxy-ethyl)-2,3,4,5-tetrahydro-1H-benzo[d]azepin-7-yl]-N*4*-(2-pyrazol-1-yl-phenyl)-pyrimidine-2,4-diamine], the IC50 was less than 100 nM in test [1] and 100 to 1000 nM in test [2].
The corresponding values for `CNC(=O)c1cc(C)cc(C)c1Nc1nc(Nc2ccc3c(c2)CCN(CCOC)CC3)ncc1Cl` [Example 317, 2-{5-Chloro-2-[3-(2-methoxy-ethyl)-2,3,4,5-tetrahydro-1H-benzo[d]azepin-7-ylamino]-pyrimidin-4-ylamino}-3,5,N-trimethyl-benzamide] are 100 to 1000 nM and 100 to 1000 nM.
The corresponding values for `COc1cc(N2CCOCC2)ccc1Nc1nc(Nc2ccc3c(c2)CCN(S(C)(=O)=O)CC3)ncc1Cl` [Example 320, 5-Chloro-N*2*-(3-methanesulfonyl-2,3,4,5-tetrahydro-1H-benzo[d]azepin-7-yl]-N*4*-(2-methoxy-4-morpholin-4-yl-phenyl)-pyrimidine-2,4-diamine] are less than 100 nM and 1000 to 10000 nM.
The like results for `CS(=O)(=O)N1CCc2ccc(Nc3ncc(Cl)c(NC4C5C=CC(C5)C4C(N)=O)n3)cc2CC1` (stereo not drawn) [Example 321, (2-exo, 3-exo)-3-[5-Chloro-2-(3-methanesulfonyl-2,3,4,5-tetrahydro-1H-benzo[d]azepin-7-ylamino)-pyrimidin-4-ylamino]-bicyclo[2.2.1]hept-5-ene-2-carboxylic acid amide] were, in that order, less than 100 nM and 100 to 1000 nM.
Regarding `C#CCN1CCc2ccc(Nc3ncc(Cl)c(Nc4ccccc4C(=O)NC)n3)cc2CC1` [Example 322, 2-[5-Chloro-2-(3-prop-2-ynyl-2,3,4,5-tetrahydro-1H-benzo[d]azepin-7-ylamino)-pyrimidin-4-ylamino]-N-methyl-benzamide], the IC50 in test [1] and in test [2] was less than 100 nM each time.
For the molecule `C#CCN1CCc2ccc(Nc3ncc(Cl)c(Nc4ccc(N5CCOCC5)cc4OC)n3)cc2CC1` [Example 324, 5-Chloro-N*4*-(2-methoxy-4-morpholin-4-yl-phenyl)-N*2*-(3-prop-2-ynyl-2,3,4,5-tetrahydro-1H-benzo[d]azepin-7-yl)-pyrimidine-2,4-diamine], the IC50 in test [1] is less than 100 nM; in test [2] it was 1000 to 10000 nM.
Take `C#CCN1CCc2ccc(Nc3ncc(Cl)c(N[C@@H]4CCCC[C@H]4NS(C)(=O)=O)n3)cc2CC1` [Example 325, N-{(1R,2R)-2-[5-Chloro-2-(3-prop-2-ynyl-2,3,4,5-tetrahydro-1H-benzo[d]azepin-7-ylamino)-pyrimidin-4-ylamino]-cyclohexyl}-methanesulfonamide]: the IC50 in test [1] is less than 100 nM; in test [2], 100 to 1000 nM.
With `C#CCN1CCc2ccc(Nc3ncc(Cl)c(Nc4ccccc4NS(C)(=O)=O)n3)cc2CC1` [Example 326, N-{2-[5-Chloro-2-(3-prop-2-ynyl-2,3,4,5-tetrahydro-1H-benzo[d]azepin-7-ylamino)-pyrimidin-4-ylamino]-phenyl}-methanesulfonamide], the IC50 in test [1] was less than 100 nM; in test [2], 100 to 1000 nM.
The corresponding values for `CNC(=O)c1ccccc1Nc1nc(Nc2ccc3c(c2)CCN(C(=O)N(C)C)CC3)ncc1Cl` [Example 327, 7-[5-Chloro-4-(2-methylcarbamoyl-phenylamino)-pyrimidin-2-ylamino]-1,2,4,5-tetrahydro-benzo[d]azepine-3-carboxylic acid dimethylamide] are less than 100 nM and less than 100 nM.
The like results for `CNC(=O)c1ccccc1Nc1nc(Nc2ccc3c(c2)CCN(C[C@H](O)C(F)(F)F)CC3)ncc1Cl` [Example 328, 2-{5-Chloro-2-[3-((S)-3,3,3-trifluoro-2-hydroxy-propyl)-2,3,4,5-tetrahydro-1H-benzo[d]azepin-7-ylamino]-pyrimidin-4-ylamino}-N-methyl-benzamide] were, in that order, less than 100 nM and less than 100 nM.
As to `CS(=O)(=O)N[C@@H]1CCCC[C@H]1Nc1nc(Nc2ccc3c(c2)CCN(C[C@H](O)C(F)(F)F)CC3)ncc1Cl` [Example 329, N-((1R,2R)-2-{5-Chloro-2-[3-((S)-3,3,3-trifluoro-2-hydroxy-propyl)-2,3,4,5-tetrahydro-1H-benzo[d]azepin-7-ylamino]-pyrimidin-4-ylamino}-cyclohexyl)-methanesulfonamide], the IC50 in test [1] is less than 100 nM; in test [2], 1000 to 10000 nM.
The corresponding values for `COc1cc(N2CCOCC2)ccc1Nc1nc(Nc2ccc3c(c2)CCN(C[C@H](O)C(F)(F)F)CC3)ncc1Cl` [Example 330, (S)-3-{7-[5-Chloro-4-(2-methoxy-4-morpholin-4-yl-phenylamino)-pyrimidin-2-ylamino]-1,2,4,5-tetrahydro-benzo[d]azepin-3-yl}-1,1,1-trifluoro-propan-2-ol] are less than 100 nM and greater than 10000 nM.
The corresponding values for `NC(=O)C1C2CCC(C2)C1Nc1nc(Nc2ccc3c(c2)CCN(CC(O)C(F)(F)F)CC3)ncc1Cl` [Example 331, (2-exo,3-exo)-3-{5-Chloro-2-[3-((S)-3,3,3-trifluoro-2-hydroxy-propyl)-2,3,4,5-tetrahydro-1H-benzo[d]azepin-7-ylamino]-pyrimidin-4-ylamino}-bicyclo[2.2.1]heptane-2-carboxylic acid amide] are less than 100 nM and 100 to 1000 nM.
The like results for `CNC(=O)c1cccc(F)c1Nc1nc(Nc2ccc3c(c2)CCN(C[C@@H](O)C(F)(F)F)CC3)ncc1Cl` [Example 332, 2-{5-Chloro-2-[3-((R)-3,3,3-trifluoro-2-hydroxy-propyl)-2,3,4,5-tetrahydro-1H-benzo[d]azepin-7-ylamino]-pyrimidin-4-ylamino}-3-fluoro-N-methyl-benzamide] were, in that order, less than 100 nM and less than 100 nM.
For the molecule `COc1cc(N2CCOCC2)ccc1Nc1nc(Nc2ccc3c(c2)CCN(C[C@@H](O)C(F)(F)F)CC3)ncc1Cl` [Example 333, (R)-3-{7-[5-Chloro-4-(2-methoxy-4-morpholin-4-yl-phenylamino)-pyrimidin-2-ylamino]-1,2,4,5-tetrahydro-benzo[d]azepin-3-yl}-1,1,1-trifluoro-propan-2-ol], the IC50 in test [1] is less than 100 nM; in test [2], 1000 to 10000 nM.
The corresponding values for `CNC(=O)c1ccccc1Nc1nc(Nc2ccc3c(c2)CCN(C[C@H](OC)C(F)(F)F)CC3)ncc1Cl` [Example 335, 2-{5-Chloro-2-[3-((S)-3,3,3-trifluoro-2-methoxy-propyl)-2,3,4,5-tetrahydro-1H-benzo[d]azepin-7-ylamino]-pyrimidin-4-ylamino}-N-methyl-benzamide] are less than 100 nM and less than 100 nM.
